Measured values as given in the NIST ThermoML archive (doi:10.1021/je100145f).
Values joined by “and” are separate entries in the source; they are usually repeats but may differ in a detail not shown here. Equal entries are not always repeated.

Experiments:
[1] = 101 kPa, Liquid, Vibrating tube method
[2] = molar heat capacity at constant pressure; settings: 101 kPa, Liquid, Small sample (50 mg) DSC
[3] = xn = mol fraction of the nth substance listed; settings: 101 kPa, Liquid, Vibrating tube method, x2 = 0
[4] = molar heat capacity at constant pressure; xn = mol fraction of the nth substance listed; settings: 101 kPa, Liquid, Small sample (50 mg) DSC, x2 = 0

CCCCCCCC [octane]
Settings	mass density, [1] [kg/m3]	molar heat capacity at constant pressure, [2] [J/K/mol]
283.15 K	710.76	248.2
288.15 K	706.76	250.1
293.15 K	702.74	252.06
298.15 K	698.71	254.08
303.15 K	694.66	256.16
308.15 K	690.58	258.28
313.15 K	686.49	260.45
318.15 K	682.37	262.66

CCCCCCCC [octane] + N#Cc1ccccc1
Settings	mass density, [3] [kg/m3]	molar heat capacity at constant pressure, [4] [J/K/mol]
283.15 K	710.76	248.2
288.15 K	706.76	250.1
293.15 K	702.74	252.06
298.15 K	698.71	254.08
303.15 K	694.66	256.16
308.15 K	690.58	258.28
313.15 K	686.49	260.45
318.15 K	682.37	262.66

CCCCCCCCC [nonane] + N#Cc1ccccc1
Settings	mass density, [3] [kg/m3]	molar heat capacity at constant pressure, [4] [J/K/mol]
285.15 K	724.54	278.38
288.15 K	722.22	279.6
293.15 K	718.35	281.72
298.15 K	714.46	283.86
303.15 K	710.55	286.11
308.15 K	706.63	288.4
313.15 K	702.7	290.76

CCCCCCCCC [nonane]
Settings	mass density, [1] [kg/m3]	molar heat capacity at constant pressure, [2] [J/K/mol]
285.15 K	724.54	278.38
288.15 K	722.22	279.6
293.15 K	718.35	281.72
298.15 K	714.46	283.86
303.15 K	710.55	286.11
308.15 K	706.63	288.4
313.15 K	702.7	290.76

N#Cc1ccccc1 [benzonitrile]
Settings	mass density, [1] [kg/m3]	molar heat capacity at constant pressure, [2]
283.15 K	1013.99	163.43 J/K/mol
285.15 K	1012.21	163.9 J/K/mol
288.15 K	1009.55	164.61 J/K/mol and 164.63 J/K/mol
293.15 K	1005.12	165.82 J/K/mol
298.15 K	1000.69	167.06 J/K/mol
303.15 K	996.26	168.32 J/K/mol
308.15 K	991.83	169.59 J/K/mol
313.15 K	987.4	170.87 J/K/mol
318.15 K	982.96	172.15 J/K/mol
